Experiment in all cases: cell-based
One experiment concerns the target rat α7 nAChR (Rattus norvegicus, UniProt Q05941). The format is cell-based.
For another experiment, the target named is rat α3β4 nAChR (Rattus norvegicus, UniProt P04757+P12392). In kind it is cell-based.
Another experiment deals with rat α2β2 nAChR (Rattus norvegicus, UniProt P12389+P12390). In kind it is cell-based.
In another experiment the target is rat α4β4 nAChR (Rattus norvegicus, UniProt P09483+P12392). In kind it is cell-based.
Another experiment addresses rat α2β4 nAChR (Rattus norvegicus, UniProt P12389+P12392). The format is cell-based.
The target in another experiment is human α9α10 nAChR (Homo sapiens, UniProt Q9GZZ6+Q9UGM1). In kind it is cell-based.
Another experiment addresses rat α6/α3β2β3 nAChR (Rattus norvegicus, UniProt P04757+P12390+P12391+P43143).
In a further experiment the target is rat α3β2 nAChR (Rattus norvegicus, UniProt P04757+P12390).
The next experiment has as its target rat α4β2 nAChR (Rattus norvegicus, UniProt P09483+P12390). In kind it is cell-based.

Where a SMILES comes first, the peptide text is derived from it. Bridges are numbered along the chain shown (N, C = ends). Some results are limits rather than exact numbers.

Results on one molecule are retold here after PMC8001506 (Marine Drugs, 2021).

Sequence of rat α4β4 nAChR (P09483 31-630 limits assumed): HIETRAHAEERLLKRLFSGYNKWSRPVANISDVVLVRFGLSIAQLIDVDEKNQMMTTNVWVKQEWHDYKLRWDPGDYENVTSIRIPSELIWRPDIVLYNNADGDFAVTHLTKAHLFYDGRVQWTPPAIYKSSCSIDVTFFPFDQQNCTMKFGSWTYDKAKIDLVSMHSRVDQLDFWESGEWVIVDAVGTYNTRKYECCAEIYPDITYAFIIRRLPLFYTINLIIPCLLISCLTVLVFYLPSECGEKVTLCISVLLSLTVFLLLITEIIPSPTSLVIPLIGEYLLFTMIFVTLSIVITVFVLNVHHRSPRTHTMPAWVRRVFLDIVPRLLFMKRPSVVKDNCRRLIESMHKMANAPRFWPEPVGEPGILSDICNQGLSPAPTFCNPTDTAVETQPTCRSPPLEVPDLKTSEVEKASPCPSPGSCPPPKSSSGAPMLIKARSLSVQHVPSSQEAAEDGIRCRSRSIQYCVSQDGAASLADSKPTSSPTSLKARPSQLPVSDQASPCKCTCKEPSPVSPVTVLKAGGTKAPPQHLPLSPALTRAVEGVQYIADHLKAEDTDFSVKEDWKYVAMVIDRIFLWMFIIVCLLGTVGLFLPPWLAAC
Sequence of rat α4β4 nAChR (P12392 21-495 limits assumed): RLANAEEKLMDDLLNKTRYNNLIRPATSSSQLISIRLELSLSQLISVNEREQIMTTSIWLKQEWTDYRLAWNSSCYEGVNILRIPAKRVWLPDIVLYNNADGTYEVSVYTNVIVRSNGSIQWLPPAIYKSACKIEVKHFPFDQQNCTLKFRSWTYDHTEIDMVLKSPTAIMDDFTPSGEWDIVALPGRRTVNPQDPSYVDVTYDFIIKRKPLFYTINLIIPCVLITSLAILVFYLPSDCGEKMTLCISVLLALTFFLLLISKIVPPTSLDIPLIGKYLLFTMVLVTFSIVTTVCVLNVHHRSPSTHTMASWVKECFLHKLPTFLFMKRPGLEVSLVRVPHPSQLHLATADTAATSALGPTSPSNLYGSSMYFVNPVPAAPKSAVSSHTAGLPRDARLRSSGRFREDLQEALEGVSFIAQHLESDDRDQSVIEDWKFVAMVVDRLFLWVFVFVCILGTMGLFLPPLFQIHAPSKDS
Sequence of rat α4β2 nAChR (P09483 31-630 limits assumed): as the sequence (P09483 31-630 limits assumed) above
Sequence of rat α4β2 nAChR (P12390 25-500 limits assumed): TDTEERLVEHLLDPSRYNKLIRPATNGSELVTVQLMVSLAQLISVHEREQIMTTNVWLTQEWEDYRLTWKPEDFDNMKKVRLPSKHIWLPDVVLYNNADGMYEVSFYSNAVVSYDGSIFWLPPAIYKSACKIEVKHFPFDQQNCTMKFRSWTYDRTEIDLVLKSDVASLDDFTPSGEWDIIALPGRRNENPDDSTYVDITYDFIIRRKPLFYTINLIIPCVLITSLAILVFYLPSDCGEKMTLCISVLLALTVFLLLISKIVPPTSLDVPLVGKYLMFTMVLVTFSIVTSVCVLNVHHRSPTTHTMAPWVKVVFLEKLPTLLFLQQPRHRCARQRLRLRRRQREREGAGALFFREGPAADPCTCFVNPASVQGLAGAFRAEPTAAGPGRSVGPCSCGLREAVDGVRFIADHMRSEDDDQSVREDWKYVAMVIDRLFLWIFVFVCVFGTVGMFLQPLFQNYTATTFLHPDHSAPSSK
Sequence of human α9α10 nAChR (Q9UGM1 26-479 limits assumed): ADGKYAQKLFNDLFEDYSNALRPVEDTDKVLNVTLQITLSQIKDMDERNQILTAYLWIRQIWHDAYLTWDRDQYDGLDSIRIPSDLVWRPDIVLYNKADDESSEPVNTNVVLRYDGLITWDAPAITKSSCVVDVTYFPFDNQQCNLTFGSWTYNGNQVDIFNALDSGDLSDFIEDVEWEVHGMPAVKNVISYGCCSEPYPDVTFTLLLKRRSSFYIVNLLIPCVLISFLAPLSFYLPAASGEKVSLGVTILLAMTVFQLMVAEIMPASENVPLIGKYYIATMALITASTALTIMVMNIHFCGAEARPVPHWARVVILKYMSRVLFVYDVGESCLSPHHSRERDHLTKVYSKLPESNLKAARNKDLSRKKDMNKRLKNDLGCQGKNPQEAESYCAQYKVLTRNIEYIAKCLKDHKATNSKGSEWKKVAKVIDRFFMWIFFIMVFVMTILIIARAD
Sequence of human α9α10 nAChR (Q9GZZ6 25-450 limits assumed): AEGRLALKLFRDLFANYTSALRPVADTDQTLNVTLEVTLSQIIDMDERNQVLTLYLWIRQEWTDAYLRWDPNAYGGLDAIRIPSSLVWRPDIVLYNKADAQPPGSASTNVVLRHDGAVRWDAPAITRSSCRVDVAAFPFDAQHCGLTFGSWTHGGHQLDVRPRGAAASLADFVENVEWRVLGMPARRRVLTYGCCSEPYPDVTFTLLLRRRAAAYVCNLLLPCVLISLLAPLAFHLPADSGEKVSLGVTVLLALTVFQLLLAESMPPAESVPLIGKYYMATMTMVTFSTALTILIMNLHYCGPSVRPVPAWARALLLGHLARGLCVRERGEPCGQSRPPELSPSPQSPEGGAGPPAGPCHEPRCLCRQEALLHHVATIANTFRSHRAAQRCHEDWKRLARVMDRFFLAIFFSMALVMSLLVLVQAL
Sequence of rat α7 nAChR (Q05941 23-502 limits assumed): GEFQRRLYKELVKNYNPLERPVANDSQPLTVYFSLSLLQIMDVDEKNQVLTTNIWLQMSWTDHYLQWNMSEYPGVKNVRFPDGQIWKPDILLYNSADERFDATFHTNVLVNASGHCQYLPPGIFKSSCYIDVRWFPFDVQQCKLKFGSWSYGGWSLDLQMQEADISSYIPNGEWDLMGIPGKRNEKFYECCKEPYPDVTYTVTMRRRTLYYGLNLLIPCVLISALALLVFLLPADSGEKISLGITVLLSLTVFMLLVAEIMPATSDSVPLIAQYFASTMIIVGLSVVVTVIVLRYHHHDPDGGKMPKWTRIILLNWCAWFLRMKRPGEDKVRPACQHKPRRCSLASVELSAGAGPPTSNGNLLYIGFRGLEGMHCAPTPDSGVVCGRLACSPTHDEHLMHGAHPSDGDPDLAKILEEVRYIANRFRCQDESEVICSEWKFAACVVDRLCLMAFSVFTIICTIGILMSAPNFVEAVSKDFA
Sequence of rat α6/α3β2β3 nAChR (P04757 whole entry, looked up): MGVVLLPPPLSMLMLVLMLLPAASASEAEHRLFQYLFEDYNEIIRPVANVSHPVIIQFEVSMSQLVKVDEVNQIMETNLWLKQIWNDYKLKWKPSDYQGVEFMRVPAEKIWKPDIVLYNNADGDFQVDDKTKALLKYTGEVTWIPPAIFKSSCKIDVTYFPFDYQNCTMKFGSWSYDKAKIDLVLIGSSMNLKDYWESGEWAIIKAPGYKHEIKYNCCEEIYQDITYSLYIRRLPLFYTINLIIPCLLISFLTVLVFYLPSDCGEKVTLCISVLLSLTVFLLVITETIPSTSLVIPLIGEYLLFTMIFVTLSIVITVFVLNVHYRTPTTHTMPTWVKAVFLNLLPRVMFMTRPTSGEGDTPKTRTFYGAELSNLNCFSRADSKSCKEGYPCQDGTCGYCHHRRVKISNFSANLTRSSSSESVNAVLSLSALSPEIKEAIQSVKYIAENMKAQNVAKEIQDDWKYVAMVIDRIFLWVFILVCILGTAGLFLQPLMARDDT
Sequence of rat α6/α3β2β3 nAChR (P12390 whole entry, looked up): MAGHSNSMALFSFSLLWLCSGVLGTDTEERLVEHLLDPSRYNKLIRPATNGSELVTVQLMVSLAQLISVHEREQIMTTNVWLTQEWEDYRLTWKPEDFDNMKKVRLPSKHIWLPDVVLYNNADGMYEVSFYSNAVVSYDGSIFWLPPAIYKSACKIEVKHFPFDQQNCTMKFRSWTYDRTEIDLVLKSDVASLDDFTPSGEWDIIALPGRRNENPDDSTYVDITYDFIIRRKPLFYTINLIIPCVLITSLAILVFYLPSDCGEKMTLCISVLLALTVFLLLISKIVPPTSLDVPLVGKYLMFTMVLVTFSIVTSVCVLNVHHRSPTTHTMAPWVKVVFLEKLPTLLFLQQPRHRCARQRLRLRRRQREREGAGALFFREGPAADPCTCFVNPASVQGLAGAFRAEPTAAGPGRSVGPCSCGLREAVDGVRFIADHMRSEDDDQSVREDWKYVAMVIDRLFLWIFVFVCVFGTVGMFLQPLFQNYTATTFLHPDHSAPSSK
Sequence of rat α6/α3β2β3 nAChR (P12391 whole entry, looked up): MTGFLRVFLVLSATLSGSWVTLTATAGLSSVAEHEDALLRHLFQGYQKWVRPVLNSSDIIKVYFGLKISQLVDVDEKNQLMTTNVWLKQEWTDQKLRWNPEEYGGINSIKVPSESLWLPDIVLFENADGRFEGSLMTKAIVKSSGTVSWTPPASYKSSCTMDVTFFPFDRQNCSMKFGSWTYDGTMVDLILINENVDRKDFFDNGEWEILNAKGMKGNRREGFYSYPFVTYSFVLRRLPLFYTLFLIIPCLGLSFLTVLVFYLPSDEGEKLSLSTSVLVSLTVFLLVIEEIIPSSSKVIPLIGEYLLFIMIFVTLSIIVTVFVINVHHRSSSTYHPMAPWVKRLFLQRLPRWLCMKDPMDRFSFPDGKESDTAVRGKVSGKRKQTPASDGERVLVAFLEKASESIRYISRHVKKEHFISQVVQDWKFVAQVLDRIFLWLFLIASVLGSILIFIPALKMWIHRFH
Sequence of rat α6/α3β2β3 nAChR (P43143 whole entry, looked up): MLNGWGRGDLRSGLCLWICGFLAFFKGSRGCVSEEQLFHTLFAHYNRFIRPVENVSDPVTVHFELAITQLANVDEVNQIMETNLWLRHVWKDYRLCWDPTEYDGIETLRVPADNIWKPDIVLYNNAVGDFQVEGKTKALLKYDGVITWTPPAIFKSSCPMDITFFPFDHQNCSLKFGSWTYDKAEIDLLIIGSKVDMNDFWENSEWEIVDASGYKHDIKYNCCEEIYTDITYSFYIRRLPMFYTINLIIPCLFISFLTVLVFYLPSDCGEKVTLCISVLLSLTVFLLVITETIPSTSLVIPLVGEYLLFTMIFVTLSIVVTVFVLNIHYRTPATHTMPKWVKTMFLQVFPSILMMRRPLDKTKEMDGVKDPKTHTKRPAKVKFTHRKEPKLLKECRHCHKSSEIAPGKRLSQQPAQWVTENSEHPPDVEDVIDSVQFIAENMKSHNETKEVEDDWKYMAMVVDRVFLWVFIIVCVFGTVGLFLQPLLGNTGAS

Regarding `CC(C)C[C@@H]1NC(=O)[C@H](CC(=O)O)NC(=O)[C@H](CO)NC(=O)[C@H](Cc2c[nH]cn2)NC(=O)[C@H](CCC(N)=O)NC(=O)[C@H](C(C)C)NC(=O)[C@H](CCC(N)=O)NC(=O)[C@@H]2CSSC[C@H](NC(=O)[C@@H](NC(=O)[C@H](CC(=O)O)NC(=O)[C@H](C)NC(=O)CNC(=O)[C@H](CO)NC(=O)[C@H](C)N)[C@@H](C)O)C(=O)N[C@@H](CSSC[C@@H](C(=O)O)NC1=O)C(=O)N[C@@H](CO)C(=O)N[C@@H](CC(N)=O)C(=O)N1CCC[C@H]1C(=O)N[C@@H](C)C(=O)N2` [CIC] (H-ASGADTCCSNPACQVQHSDLC-OH; disulfide 7-13, 8-21), the IC50 against rat α7 nAChR, on rat α3β4 nAChR, on rat α2β2 nAChR, against rat α4β4 nAChR, against rat α2β4 nAChR and against human α9α10 nAChR was above 10 µM throughout. Further, the IC50 (usually the concentration that inhibits the measured activity by half) against rat α6/α3β2β3 nAChR was 1.03 µM; at rat α3β2 nAChR it was 3.51 µM; at rat α4β2 nAChR, above 10 µM.
